Test results from ChEMBL document CHEMBL3817761, “Chenopodium album metabolites act as dual topoisomerase inhibitors and induce apoptosis in the MCF7 cell line” (Medchemcomm, 2016).
Activity calls are given as the source filed them. No cut-off for these calls is given here.

Experiments:
[1] = test system: MCF7; experiment: Induction of apoptosis in human MCF7 cells assessed as viable cells at 11.33 uM after 24 hrs by Annexin-V-FITC/propidium iodide staining based flow cytometry (reference value: 95.9 %); format: functional; details: MCF7, 24 h, read-out: Activity
[2] = test system: MCF7; experiment: Induction of apoptosis in human MCF7 cells assessed as early apoptotic cells at 11.33 uM after 24 hrs by Annexin-V-FITC/propidium iodide staining based flow cytometry (reference value: 2.3 %); format: functional
[3] = test system: MCF7; experiment: Induction of apoptosis in human MCF7 cells assessed as late apoptotic cells at 11.33 uM after 24 hrs by Annexin-V-FITC/propidium iodide staining based flow cytometry (reference value: 0.1 %); format: functional
[4] = test system: MCF7; experiment: Induction of apoptosis in human MCF7 cells assessed as necrotic cells at 11.33 uM after 24 hrs by Annexin-V-FITC/propidium iodide staining based flow cytometry (reference value: 1.7 %); format: functional
[5] = test system: MCF7; experiment: Induction of apoptosis in human MCF7 cells assessed as early apoptotic cells at 11.33 uM after 48 hrs by Annexin-V-FITC/propidium iodide staining based flow cytometry (reference value: 0.4 %); format: functional
[6] = test system: MCF7; experiment: Induction of apoptosis in human MCF7 cells assessed as necrotic cells at 11.33 uM after 48 hrs by Annexin-V-FITC/propidium iodide staining based flow cytometry (reference value: 0.4 %); format: functional
[7] = test system: MCF7; experiment: Induction of mitochondrial membrane depolarization in human MCF7 cells at 11.33 uM after 48 hrs by JC-1 staining based FACS assay (reference value: 9.9 %); format: functional
[8] = test system: MCF7; experiment: Induction of apoptosis in human MCF7 cells assessed as PARP-1 cleavage at 11.33 uM after 48 hrs by Western blot analysis; format: functional, cell-based
[9] = test system: MCF7; experiment: Cell cycle arrest in human MCF7 cells assessed as accumulation at G0/G1 phase at 11.33 uM after 24 hrs by propidium iodide staining based flow cytometry (reference value: 50.3 %); format: functional
[10] = test system: MCF7; experiment: Cell cycle arrest in human MCF7 cells assessed as accumulation at S phase at 11.33 uM after 24 hrs by propidium iodide staining based flow cytometry (reference value: 24.5 %); format: functional
[11] = test system: MCF7; experiment: Cell cycle arrest in human MCF7 cells assessed as accumulation at G0/G1 phase at 11.33 uM after 48 hrs by propidium iodide staining based flow cytometry (reference value: 59.7 %); format: functional
[12] = test system: MCF7; experiment: Cell cycle arrest in human MCF7 cells assessed as accumulation at G2/M phase at 11.33 uM after 48 hrs by propidium iodide staining based flow cytometry (reference value: 19.8 %); format: functional
[13] = test system: MCF7; experiment: Cell cycle arrest in human MCF7 cells assessed as accumulation at S phase at 11.33 uM after 48 hrs by propidium iodide staining based flow cytometry (reference value: 20.6 %); format: functional
[14] = test system: MCF7; experiment: Induction of apoptosis in human MCF7 cells assessed as cell detachment at 11.33 uM after 24 hrs by inverted phase contrast microscopy; format: functional, cell-based
[15] = test system: MCF7; experiment: Induction of apoptosis in human MCF7 cells assessed as rounded cells at 11.33 uM after 24 hrs by inverted phase contrast microscopy; format: functional, cell-based
[16] = test system: MCF7; experiment: Induction of ROS accumulation in human MCF7 cells at 11.33 uM after 24 hrs by CM-H2-DCFDA probe based flow cytometry (reference value: 12.6 %); format: functional
[17] = test system: MCF7; experiment: Induction of mitochondrial membrane depolarization in human MCF7 cells assessed as ratio of red to green fluorescence at 11.33 uM after 24 hrs by JC-1 staining based FACS assay (reference value: 9.1); format: functional
[18] = test system: MCF7; experiment: Induction of apoptosis in human MCF7 cells assessed as late apoptotic cells at 8.27 uM after 24 hrs by Annexin-V-FITC/propidium iodide staining based flow cytometry (reference value: 0.1 %); format: functional
[19] = test system: MCF7; experiment: Induction of apoptosis in human MCF7 cells assessed as necrotic cells at 8.27 uM after 24 hrs by Annexin-V-FITC/propidium iodide staining based flow cytometry (reference value: 1.7 %); format: functional
[20] = test system: MCF7; experiment: Induction of apoptosis in human MCF7 cells assessed as early apoptotic cells at 8.27 uM after 48 hrs by Annexin-V-FITC/propidium iodide staining based flow cytometry (reference value: 0.4 %); format: functional
[21] = test system: MCF7; experiment: Induction of apoptosis in human MCF7 cells assessed as late apoptotic cells at 8.27 uM after 48 hrs by Annexin-V-FITC/propidium iodide staining based flow cytometry relative to control; format: functional
[22] = test system: MCF7; experiment: Induction of apoptosis in human MCF7 cells assessed as necrotic cells at 8.27 uM after 48 hrs by Annexin-V-FITC/propidium iodide staining based flow cytometry (reference value: 0.4 %); format: functional
[23] = test system: MCF7; experiment: Induction of mitochondrial membrane depolarization in human MCF7 cells at 8.27 uM after 24 hrs by JC-1 staining based FACS assay (reference value: 9.9 %); format: functional
[24] = test system: MCF7; experiment: Induction of mitochondrial membrane depolarization in human MCF7 cells at 8.27 uM after 48 hrs by JC-1 staining based FACS assay (reference value: 9.9 %); format: functional
[25] = test system: MCF7; experiment: Induction of ROS accumulation in human MCF7 cells at 8.27 uM after 12 hrs by CM-H2-DCFDA probe based flow cytometry (reference value: 5.1 %); format: functional
[26] = test system: MCF7; experiment: Induction of apoptosis in human MCF7 cells assessed as caspase 9 cleavage at 8.27 uM after 48 hrs by Western blot analysis; format: functional, cell-based
[27] = test system: MCF7; experiment: Induction of apoptosis in human MCF7 cells assessed as PARP-1 cleavage at 8.27 uM after 48 hrs by Western blot analysis; format: functional, cell-based
[28] = test system: MCF7; experiment: Cell cycle arrest in human MCF7 cells assessed as accumulation at G0/G1 phase at 8.27 uM after 24 hrs by propidium iodide staining based flow cytometry (reference value: 50.3 %); format: functional
[29] = test system: MCF7; experiment: Cell cycle arrest in human MCF7 cells assessed as accumulation at G2/M phase at 8.27 uM after 24 hrs by propidium iodide staining based flow cytometry (reference value: 25 %); format: functional
[30] = test system: MCF7; experiment: Cell cycle arrest in human MCF7 cells assessed as accumulation at S phase at 8.27 uM after 24 hrs by propidium iodide staining based flow cytometry (reference value: 24.5 %); format: functional
[31] = test system: MCF7; experiment: Cell cycle arrest in human MCF7 cells assessed as accumulation at G2/M phase at 8.27 uM after 48 hrs by propidium iodide staining based flow cytometry (reference value: 19.8 %); format: functional
[32] = test system: MCF7; experiment: Induction of apoptosis in human MCF7 cells assessed as cell detachment at 8.27 uM after 24 hrs by inverted phase contrast microscopy; format: functional, cell-based
[33] = test system: MCF7; experiment: Induction of apoptosis in human MCF7 cells assessed as rounded cells at 8.27 uM after 24 hrs by inverted phase contrast microscopy; format: functional, cell-based
[34] = test system: MCF7; experiment: Induction of ROS accumulation in human MCF7 cells at 8.27 uM after 24 hrs by CM-H2-DCFDA probe based flow cytometry (reference value: 12.6 %); format: functional
[35] = test system: MCF7; experiment: Induction of mitochondrial membrane depolarization in human MCF7 cells at 8.27 uM by JC-1 staining based FACS assay; format: functional, cell-based; details: TDE = time-dependent effect
[36] = test system: MCF7; experiment: Induction of mitochondrial membrane depolarization in human MCF7 cells assessed as ratio of red to green fluorescence at 8.27 uM after 48 hrs by JC-1 staining based FACS assay (reference value: 9.1); format: functional

CC1(C)CC[C@]2(C(=O)O)CC[C@]3(C)C(=CC[C@@H]4[C@@]5(C)CC[C@H](O[C@@H]6O[C@H](C(=O)O)[C@@H](O)[C@H](O)[C@H]6O)C(C)(C)[C@@H]5CC[C@]43C)[C@@H]2C1
viability at 11.33 µM [1]: 87.5%
Activity [2]: 11.6%
Activity [3]: 0.2%
Activity [4]: 0.7%
Activity [5]: 46%
Activity [6]: 0.8%
Activity [7]: 54.9%
Activity [8]: Active
Activity [9]: 45.9%
Activity [10]: 29.7%
Activity [11]: 35.1%
Activity [12]: 17%
Activity [13]: 47.1%
Activity [14]: Active
Activity [15]: Active
Activity [16]: 99.9%
Ratio [17]: 6.14

C[C@@H]1CC[C@@]2(OC1)O[C@H]1C[C@H]3[C@@H]4CC[C@H]5C[C@@H](O[C@@H]6O[C@H](CO)[C@H](O[C@@H]7O[C@H](CO)[C@@H](O)[C@H](O[C@@H]8OC[C@@H](O)[C@H](O)[C@H]8O)[C@H]7O[C@@H]7O[C@H](CO)[C@@H](O)[C@H](O)[C@H]7O)[C@H](O)[C@H]6O)CC[C@]5(C)[C@H]4CC[C@]3(C)[C@H]1[C@@H]2C [DEGALACTOTIGONIN]
Activity [18]: 0.5%
Activity [19]: 3%
Activity [20]: 98.7%
Activity [21]: 0.6%
Activity [22]: 0%
Activity [23]: 9%
Activity [24]: 69.6%
Activity [25]: 50.5%
Activity [26]: Active
Activity [27]: Active
Activity [28]: 43.8%
Activity [29]: 28.5%
Activity [30]: 27.5%
Activity [31]: 22.5%
Activity [32]: Active
Activity [33]: Active
Activity [34]: 99.9%
Activity [35]: tde
Ratio [36]: 0.437
